Laboratory results from article PMC9468151, “Identification of a binding site on soluble RANKL that can be targeted to inhibit soluble RANK-RANKL interactions and treat osteoporosis” (Nature Communications, 2022).

How the values were obtained:
OVX mice = assay: Histological examination of femur (TRAP staining); assay type: in vivo, mouse
Description: The mice left femur was fixed in paraformaldehyde for 72 h, demineralized using 10% Ethylenediamine tetra-acetic acid (EDTA-2Na) for 3 weeks, and then dehydrated with ethanol, clarified with xylene, and embedded with paraffin. Paraffin embedded tissue was sectioned on a rotary microtome. The sectioned tissues were stained with TRAP.

sRANKL = target: T1, sRANKL (Rattus norvegicus, UniProt Q9ESE2, D175N); assay: Isothermal titration calorimetry (ITC) with sRANKL; assay type: binding; conditions: for Kd: 25 °C, PBS 0.8% DMSO
T1 construct: (1) sRANKL (rat 159-318 aa); His6-sumo (N, cleaved yes); made in house; host or cells: Escherichia coli BL21 (DE3)
T1 sequence (Q9ESE2 159-318 D175N): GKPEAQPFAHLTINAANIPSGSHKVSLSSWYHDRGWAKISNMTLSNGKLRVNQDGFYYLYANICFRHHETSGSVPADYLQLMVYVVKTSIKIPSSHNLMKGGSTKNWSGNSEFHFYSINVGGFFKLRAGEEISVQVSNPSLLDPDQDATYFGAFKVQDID
Description: ITC titrations were performed on the MicroCal iTC200 system at 25 °C[55]. Working stocks of compound S3-15 were prepared in 100% DMSO at 50 mM and then diluted to 500 μM at PBS with final DMSO concentration at 0.8% (v/v). PBS with 0.8% DMSO was used as ITC buffer. Purified sRANKL or L-RANKL protein was buffer exchanged into same ITC buffer using a Millipore spin column. S3-15 at 500 μM was loaded into a syringe and protein was loaded into an isothermal calorimeter cell. During titration, S3-15 in the […] was injected (2 μL per injection, 25 injections in total, and 180 s between each injection) regularly from a rotating syringe into protein solution in the isothermal calorimeter cell. The sample cell was stirred at 385 rpm. Reference cell power was set to 5 μcal/s. Control experiments were conducted under the same conditions using buffer solution instead of S3-15. Data were analyzed using a one-site binding model in Origin 7.1 software for ITC version 7.0 (MicroCal). The dissociation constant, KD, was calculated according to equation KD = 1/K. All other parameters, K ([…]), N (varying the stoichiometry), ΔH (enthalpy of the reaction), and ΔG ([…] of the reaction) were determined from the titration data.

sRANKL trimerization = target: T2, sRANKL trimerization (Rattus norvegicus, UniProt Q9ESE2, D175N); assay: Cross-link assay of sRANKL trimerization; assay type: biochemical
T2 construct: (1) sRANKL (rat 159-318 aa); His6-sumo (N, cleaved yes); made in house; host or cells: Escherichia coli BL21 (DE3)
Description: the effect of S3-15 on RANKL self-trimerization. […]
control), S3 and S3-15 -treated sRANKL samples. The sRANKL dimer and monomer […]
trimerization process in vitro. […]
line 18 and, Figure S4L of the manuscript. […]
convinced that our sRANKL selective inhibitors does attenuate RANKL-RANK interaction without affect RANKL trimerization.”.
3. Does S3-15 affect the binding of sRANKL and mRANKL to OPG, an important
Response: To answer this question, we have performed a number of experiments. The pull-down assay was conducted to explore the effects of S3-15 on sRANKL and OPG […]
sRANKL to OPG at high concentration (10 and 1 μM) but not low concentration (0.3 μM). Three more experiments on mRANKLs have conducted to study if S3-15 affects the binding of mRANKL to OPG. Two of the experiments are on human and mouse mRANKL expressed in 293T cell, the other is on the mRANKL expressed in MC3T3-E1 osteogenic precursor cells. […]
affect the binding of mRANKL to OPG at concentration of 1 μM. […]
been documented in the page 11 at line 21 and Figure S4M-S4P of the manuscript.
Here is the paragraph we have added to the manuscript: […]

SMILES | numbers of osteoclast, histology (OVX mice) | Kd (sRANKL) [µM] | SI (sRANKL over binary-RANKL) (sRANKL; ratio of ITC KD) | effect on trimerization of sRANKL (sRANKL trimerization)
CC(=O)/C(=N\Nc1ccccc1C(=O)O)C(=O)Nc1ccccn1 [S3-15] | significantly decreased the numbers of osteoclast | 5.78 | 21 | cannot affect the trimerization of sRANKL
CCOC(=O)c1sc(NC(=O)/C(=N/Nc2ccccc2C(=O)O)C(C)=O)nc1C [S3, (E)-2-(2-(1-((5-(ethoxycarbonyl)-4-methylthiazol-2-yl)amino)-1,3-dioxobutan-2-ylidene) hydrazinyl) benzoic acid] | – | – | – | cannot affect
CCOC(=O)c1sc(NC(=O)/C(=N/Nc2ccc(O)cc2C(=O)O)C(C)=O)nc1C [S3-05] | – | 6.58 | – | –
